In brackets after ≈: the same amount, converted by molar mass.
Assays:
Assay type in all cases: functional, cell-based
[1] = system: KB; experiment: Cytotoxicity against human KB cells by colorimetric assay
[2] = Cytotoxicity against human BC cells by colorimetric assay
[3] = system: NCI-H187; experiment: Cytotoxicity against human NCI-H187 cells by colorimetric assay

Row | Compound | IC50 [1] [µg/mL] | IC50 [2] [µg/mL] | IC50 [3] [µg/mL]
1 | C=C(C)[C@@H]1CC[C@]2(C(=O)O)CC[C@]3(C)[C@H](CC[C@@H]4[C@@]5(C)CC[C@H](OC(=O)/C=C/c6ccc(O)c(OC)c6)C(C)(C)[C@@H]5CC[C@]43C)[C@@H]12 | 3.8 (≈ 6 µM) | 3 (≈ 4.74 µM) | 1.8 (≈ 2.84 µM)
2 | Cc1c2ccncc2c(C)c2c1[nH]c1ccccc12 [ELLIPTECINE] | 0.3 (≈ 1.22 µM) | 0.3 (≈ 1.22 µM) | 0.3 (≈ 1.22 µM)

From ChEMBL document CHEMBL1151285, “Dammarane triterpenes from the hypocotyls and fruits of Ceriops tagal” (J Nat Prod, 2005)
